The text below walks through data of patent US8940756B2, “Dihydronaphthyridines and related compounds useful as kinase inhibitors for the treatment of proliferative diseases” (Deciphera Pharmaceuticals, Inc., priority 2012, dated 2015).

Structures are written as SMILES.

Experiment [1] deals with Phospho-KIT (Tyr719) in GIST430 cells (Homo sapiens, UniProt P10721). Put plainly: GIST430 KIT Western Blot. Conditions: 4 hours, read-out: pKIT suppression by western blot analysi GIST430. In kind it is cell-based. How it is done: (§1) GIST48, GIST430, and GIST882 cells were obtained from J. Fletcher (Brigham and Women's Hospital, Boston, Mass.). GIST T1 cells were obtained from B. Rubin (Cleveland Clinic, Cleveland, Ohio) and Professor Takahiro Taguchi (Kochi Medical School, Nankoku, Kochi, Japan). […] GIST430 cells were grown in Ham's F10 medium supplemented with 15% characterized fetal bovine serum (Invitrogen, Carlsbad, Calif.), 30 mg/L bovine pituitary extract (BD Biosciences, San Jose, Calif.), 0.5% Mito+ serum extender (BD Biosciences, San Jose, Calif.), 1 unit/mL penicillin G, 1 μg/ml streptomycin, and 0.29 mg/mL L-glutamine at 37° C., 5% CO2, 95% humidity. GIST T1 cells were grown in DMEM medium supplemented with 10% characterized fetal bovine serum (Invitrogen, Carlsbad, Calif.), 1 unit/mL penicillin G, 1 ng/ml streptomycin, and 0.29 mg/mL L-glutamine at 37° C., 5% CO2, and 95% humidity. Cells were allowed to expand until reaching 70-95% confluence at which point they were subcultured or harvested for assay use.
(§2) One hundred fifty thousand cells were added per well in a 24-well tissue-culture treated plate. Cells were then incubated overnight at 37° C., 5% CO2, 95% humidity. Medium was aspirated, cells were washed with PBS, and serum-free Ham's F10 medium was added. A serial dilution of test compound was added to plates containing cells and plates were incubated for 4 hours at 37° C., 5% CO2, 95% humidity. Cells were washed with PBS, then lysed. Cell lysates were separated by SDS-PAGE and transferred to PVDF. Phospho-KIT (Tyr719) was detected using an antibody from Cell Signaling Technology (Beverly, Mass.), ECL Plus detection reagent (GE Healthcare, Piscataway, N.J.) and a Molecular Devices Storm 840 phosphorimager in fluorescence mode. Blots were stripped and probed for total KIT using an antibody from Santa Cruz Biotech (Santa Cruz, Calif.). IC50 values were calculated using Prism software (Graphpad, San Diego, Calif.).
Background: In western blotting, separated proteins are transferred to a membrane and probed.

In experiment [2] the target is Phospho-KIT (Tyr719) in GIST48 cells (Homo sapiens, UniProt P10721). The experiment can be described thus: GIST48 KIT Western Blot. In kind it is cell-based. As to conditions: 4 hours, read-out: pKIT suppression by western blot analysi GIST48. How it is done:
as §1
as §2, with “Two” for “One”, “RPMI1640” for “Ham's F10”

Phospho-KIT (Tyr719) in GIST430 cells, sequence (P10721 with tags, fused parts or gaps DEL560-576/V654A, form open): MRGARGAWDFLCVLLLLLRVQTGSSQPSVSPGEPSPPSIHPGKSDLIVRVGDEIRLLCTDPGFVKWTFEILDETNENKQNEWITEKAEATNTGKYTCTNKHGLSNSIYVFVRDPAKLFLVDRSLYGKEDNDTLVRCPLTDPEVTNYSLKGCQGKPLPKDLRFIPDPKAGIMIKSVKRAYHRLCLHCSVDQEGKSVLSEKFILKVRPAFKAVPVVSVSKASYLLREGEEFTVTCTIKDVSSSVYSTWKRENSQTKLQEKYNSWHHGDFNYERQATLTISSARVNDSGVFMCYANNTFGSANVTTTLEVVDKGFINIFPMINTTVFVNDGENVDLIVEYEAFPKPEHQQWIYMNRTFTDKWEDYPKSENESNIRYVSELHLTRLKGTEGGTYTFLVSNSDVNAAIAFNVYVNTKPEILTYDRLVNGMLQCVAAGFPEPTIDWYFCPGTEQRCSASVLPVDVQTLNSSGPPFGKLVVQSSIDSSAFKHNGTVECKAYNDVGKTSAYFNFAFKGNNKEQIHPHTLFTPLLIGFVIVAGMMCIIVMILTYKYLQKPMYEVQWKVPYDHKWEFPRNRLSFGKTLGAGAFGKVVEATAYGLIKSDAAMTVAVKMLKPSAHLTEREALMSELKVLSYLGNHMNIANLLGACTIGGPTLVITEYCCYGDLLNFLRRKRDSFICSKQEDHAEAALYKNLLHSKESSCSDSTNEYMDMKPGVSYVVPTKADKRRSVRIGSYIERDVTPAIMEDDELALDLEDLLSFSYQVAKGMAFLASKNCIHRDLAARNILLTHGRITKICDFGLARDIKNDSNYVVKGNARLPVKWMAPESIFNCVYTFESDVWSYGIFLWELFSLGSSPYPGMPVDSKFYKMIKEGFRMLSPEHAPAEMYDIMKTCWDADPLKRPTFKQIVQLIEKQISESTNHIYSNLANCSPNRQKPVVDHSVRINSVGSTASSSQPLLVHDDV
Phospho-KIT (Tyr719) in GIST48 cells, sequence (P10721 whole entry V560D/D820A, form open): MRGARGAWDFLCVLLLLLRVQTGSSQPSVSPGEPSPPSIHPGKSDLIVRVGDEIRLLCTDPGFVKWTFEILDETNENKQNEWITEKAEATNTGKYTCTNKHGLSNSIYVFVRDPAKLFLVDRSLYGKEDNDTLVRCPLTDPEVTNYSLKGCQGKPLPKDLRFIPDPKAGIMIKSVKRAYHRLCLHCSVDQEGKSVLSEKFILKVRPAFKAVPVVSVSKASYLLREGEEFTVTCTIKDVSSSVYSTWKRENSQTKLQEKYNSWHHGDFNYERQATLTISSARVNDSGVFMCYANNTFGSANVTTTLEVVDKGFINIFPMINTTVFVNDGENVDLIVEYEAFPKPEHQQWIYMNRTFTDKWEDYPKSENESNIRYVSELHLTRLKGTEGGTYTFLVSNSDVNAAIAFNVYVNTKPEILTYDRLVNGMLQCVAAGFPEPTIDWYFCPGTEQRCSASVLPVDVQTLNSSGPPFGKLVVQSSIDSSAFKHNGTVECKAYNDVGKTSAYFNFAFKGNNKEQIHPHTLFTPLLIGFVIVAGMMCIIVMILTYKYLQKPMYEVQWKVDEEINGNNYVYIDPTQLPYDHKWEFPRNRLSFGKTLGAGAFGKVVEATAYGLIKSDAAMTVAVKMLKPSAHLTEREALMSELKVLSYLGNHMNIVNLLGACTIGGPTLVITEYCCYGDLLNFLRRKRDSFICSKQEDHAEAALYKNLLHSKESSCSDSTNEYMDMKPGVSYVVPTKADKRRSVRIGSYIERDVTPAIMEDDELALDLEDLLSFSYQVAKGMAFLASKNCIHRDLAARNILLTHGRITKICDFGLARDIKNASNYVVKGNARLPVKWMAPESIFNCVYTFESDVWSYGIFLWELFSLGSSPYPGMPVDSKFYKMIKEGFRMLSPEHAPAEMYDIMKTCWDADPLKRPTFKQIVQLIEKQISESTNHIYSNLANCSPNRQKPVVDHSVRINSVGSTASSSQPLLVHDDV

In the case of `CCn1c(=O)c(-c2cc(NC(=O)Nc3ccccc3)c(F)cc2Cl)cc2cnc(NC(=O)N(C)C)cc21` [Example 70, 3-(3-(2-chloro-4-fluoro-5-(3-phenylureido)phenyl)-1-ethyl-2-oxo-1,2-dihydro-1,6-naphthyridin-7-yl)-1,1-dimethylurea], the IC50 was below 10 nM in experiment [1] and 10 to 100 nM in experiment [2].

For the molecule `CCn1c(=O)c(-c2cc(NC(=O)Nc3cccc(F)c3)c(F)cc2Cl)cc2cnc(NCCOC)cc21` [Example 28, 1-(4-chloro-5-(1-ethyl-7-(2-methoxyethylamino)-2-oxo-1,2-dihydro-1,6-naphthyridin-3-yl)-2-fluorophenyl)-3-(3-fluorophenyl)urea], the figures for the IC50 in experiment [1] and in experiment [2] were 10 to 100 nM and 100 to 1000 nM, respectively.

Regarding `CCn1c(=O)c(-c2cc(NC(=O)Nc3cccc4ccccc34)c(F)cc2C)cc2cnc(NC)cc21` [Example 1, 1-(5-(1-ethyl-7-(methylamino)-2-oxo-1,2-dihydro-1,6-naphthyridin-3-yl)-2-fluoro-4-methylphenyl)-3-(naphthalen-1-yl)urea], the IC50 was below 10 nM in experiment [1] and 10 to 100 nM in experiment [2].

Consider `CCn1c(=O)c(-c2cc(NC(=O)Nc3ccccc3)c(F)cc2Cl)cc2cnc(NC(=O)N3CC(O)C3)cc21` [Example 81, N-(3-(2-chloro-4-fluoro-5-(3-phenylureido)phenyl)-1-ethyl-2-oxo-1,2-dihydro-1,6-naphthyridin-7-yl)-3-hydroxyazetidine-1-carboxamide], for which the IC50 in experiment [1] and in experiment [2] was 10 to 100 nM in each case.

For the molecule `CCn1c(=O)c(-c2cc(NC(=O)Nc3cc(F)ccc3F)c(F)cc2Cl)cc2cnc(NC)cc21` [Example 68, 1-(4-chloro-5-(1-ethyl-7-(methylamino)-2-oxo-1,2-dihydro-1,6-naphthyridin-3-yl)-2-fluorophenyl)-3-(2,5-difluorophenyl)urea], the figures for the IC50 in experiment [1] and in experiment [2] were 10 to 100 nM and 100 to 1000 nM, respectively.

Consider `CCn1c(=O)c(-c2cc(NC(=O)Nc3ccccc3)c(F)cc2C)cc2cnc(NC(=O)N(C)C)cc21` [Example 101, 3-(1-ethyl-3-(4-fluoro-2-methyl-5-(3-phenylureido)phenyl)-2-oxo-1,2-dihydro-1,6-naphthyridin-7-yl)-1,1-dimethylurea], for which the IC50 is 10 to 100 nM in experiment [1] and above 1000 nM in experiment [2].

`CCn1c(=O)c(-c2cc(NC(=O)Nc3cc(F)cc(F)c3)c(F)cc2Cl)cc2cnc(NC)cc21` [Example 55, 1-(4-chloro-5-(1-ethyl-7-(methylamino)-2-oxo-1,2-dihydro-1,6-naphthyridin-3-yl)-2-fluorophenyl)-3-(3,5-difluorophenyl)urea]: the IC50 was 10 to 100 nM in experiment [1] and above 1000 nM in experiment [2].

As for `CCn1c(=O)c(-c2cc(NC(=O)Nc3cccc(F)c3F)c(F)cc2Cl)cc2cnc(NC)cc21` [Example 4, 1-(4-chloro-5-(1-ethyl-7-(methylamino)-2-oxo-1,2-dihydro-1,6-naphthyridin-3-yl)-2-fluorophenyl)-3-(2,3-difluorophenyl)urea], the IC50 in experiment [1] and in experiment [2] was 10 to 100 nM in each case.

On to `CNc1cc2c(cn1)cc(-c1cc(NC(=O)Nc3ccccc3)c(F)cc1Cl)c(=O)n2C(C)C` [Example 22, 1-(4-chloro-2-fluoro-5-(1-isopropyl-7-(methylamino)-2-oxo-1,2-dihydro-1,6-naphthyridin-3-yl)phenyl)-3-phenylurea], for which the IC50 in experiment [1] and in experiment [2] was 10 to 100 nM each time.

Turning to `CCn1c(=O)c(-c2cc(NC(=O)Nc3cccc(F)c3)c(F)cc2Cl)cc2cnc(NC)cc21` [Example 24, 1-[4-chloro-5-(1-ethyl-7-methylamino-2-oxo-1,2-dihydro-[1,6]naphthyridin-3-yl)-2-fluoro-phenyl]-3-(3-fluoro-phenyl)-urea], the IC50 is below 10 nM in experiment [1] and 10 to 100 nM in experiment [2].

As to `CCn1c(=O)c(-c2cc(NC(=O)Nc3cccc(F)c3)c(F)cc2C)cc2cnc(N)cc21` [Example 58, 1-(5-(7-amino-1-ethyl-2-oxo-1,2-dihydro-1,6-naphthyridin-3-yl)-2-fluoro-4-methylphenyl)-3-(3-fluorophenyl)urea], the figures for the IC50 in experiment [1] and in experiment [2] were 10 to 100 nM and 100 to 1000 nM, respectively.

`CCn1c(=O)c(-c2cc(NC(=O)Nc3csc4ccccc34)c(F)cc2Cl)cc2cnc(NC)cc21` [Example 32]: the IC50 in experiment [1] and in experiment [2] was below 10 nM in each case.

`CCn1c(=O)c(-c2cc(NC(=O)Nc3ccccc3F)c(F)cc2Cl)cc2cnc(NC)cc21` [Example 25, 1-[4-chloro-5-(1-ethyl-7-methylamino-2-oxo-1,2-dihydro-[1,6]naphthyridin-3-yl)-2-fluoro-phenyl]-3-(2-fluoro-phenyl)-urea]: the IC50 in experiment [1] and in experiment [2] was 10 to 100 nM each time.

As for `CCn1c(=O)c(-c2cc(NC(=O)Nc3ccccc3)c(F)cc2Cl)cc2cnc(NC(=O)OC)cc21` [Example 73, methyl (3-(2-chloro-4-fluoro-5-(3-phenylureido)phenyl)-1-ethyl-2-oxo-1,2-dihydro-1,6-naphthyridin-7-yl)carbamate], the IC50 in experiment [1] and in experiment [2] was 10 to 100 nM throughout.

`CCn1c(=O)c(-c2cc(NC(=O)Nc3ccccc3)c(F)cc2Cl)cc2cnc(NCCOC)cc21` [Example 27, 1-(4-chloro-5-(1-ethyl-7-(2-methoxyethylamino)-2-oxo-1,2-dihydro-1,6-naphthyridin-3-yl)-2-fluorophenyl)-3-phenylurea]: the IC50 in experiment [1] and in experiment [2] was 10 to 100 nM throughout.

For the molecule `CCn1c(=O)c(-c2cc(NC(=O)Nc3cc(F)cc(F)c3)c(F)cc2C)cc2cnc(NC(=O)N(C)C)cc21` [Example 108, 3-(3-(5-(3-(3,5-difluorophenyl)ureido)-4-fluoro-2-methylphenyl)-1-ethyl-2-oxo-1,2-dihydro-1,6-naphthyridin-7-yl)-1,1-dimethylurea], the values for the IC50 in experiment [1] and in experiment [2] were 10 to 100 nM and 100 to 1000 nM, respectively.

Regarding `CC(=O)Nc1cc2c(cn1)cc(-c1cc(NC(=O)Nc3ccccc3)c(F)cc1Cl)c(=O)n2C(C)C` [Example 86, N-(3-(2-chloro-4-fluoro-5-(3-phenylureido)phenyl)-1-isopropyl-2-oxo-1,2-dihydro-1,6-naphthyridin-7-yl)acetamide], the IC50 is 10 to 100 nM in experiment [1] and below 10 nM in experiment [2].

On to `CCn1c(=O)c(-c2cc(NC(=O)Nc3cc(F)cc(F)c3)c(F)cc2Cl)cc2cnc(NC(C)=O)cc21` [Example 67, N-(3-(2-chloro-5-(3-(3,5-difluorophenyl)ureido)-4-fluorophenyl)-1-ethyl-2-oxo-1,2-dihydro-1,6-naphthyridin-7-yl)acetamide], for which the IC50 in experiment [1] and in experiment [2] was below 10 nM in each case.

As to `CCn1c(=O)c(-c2cc(NC(=O)Nc3ccccc3)c(F)cc2F)cc2cnc(NC)cc21` [Example 16, 1-(5-(1-ethyl-7-(methylamino)-2-oxo-1,2-dihydro-1,6-naphthyridin-3-yl)-2,4-difluorophenyl)-3-phenylurea], the IC50 in experiment [1] and in experiment [2] was 100 to 1000 nM in each case.

`CCn1c(=O)c(-c2cc(NC(=O)Nc3cc(F)cc(F)c3)c(F)cc2F)cc2cnc(NC)cc21` [Example 63]: the values for the IC50 in experiment [1] and in experiment [2] were 10 to 100 nM and 100 to 1000 nM, respectively.
